Experimental findings from US20100099113A1, “MINIMIZED SMALL PEPTIDES WITH HIGH AFFINITY FOR FACTOR VIII AND FACTOR VIII-LIKE PROTEINS” (Technische Universitat Muenchen, priority 2006, published 2010) are described below.

Where no end group is shown, it is not given here. [ ]: non-standard residue; d: D form. Bpa = N[C@@H](Cc1ccc(C(=O)c2ccccc2)cc1)C(=O)O; 2Nal = N[C@@H](Cc1ccc2ccccc2c1)C(=O)O; Abu = CC[C@H](N)C(=O)O

Experiment [1] has as its target T1, Plasma-derived (pd-) human Factor VIII (Homo sapiens, UniProt P00451).
T1 construct: from tissue; host or cells: human blood plasma (FVIII concentrate)
The experiment can be described thus: Binding of 125I-labeled pd-FVIII to peptide-coated Toyopearl resin (micro-beads assay). The note with it: peptide immobilized on Toyopearl AF-Epoxy-650M resin; 125I-pd-FVIII, 2 hours room temperature; percent of maximal achievable binding (anti-FVIII Mab 8860-coated resin); mean ± SD of four determinations. The method, then: Peptides S1 to S84 were immobilized on the Toyopearl AF-Epoxy-650M resin (Tosoh Biosep) as described by Jungbauer et al. For immobilization, 2.5 mg of each peptide was dissolved in 0.25 mL of the immobilization buffer (0.2 M sodium bicarbonate, pH 10.3), and 0.036 g of the dry resin powder (corresponding to 0.125 mL of swollen resin) was added, followed by incubation of the mixture with gentle rotation for 48 hours. Upon incubation for 48 hours the resin was washed once with immobilization buffer, once with 1 M NaCl and then 3 times with binding buffer, and binding of ^125I-labeled pd-FVIII to the peptide-coated and control resin was tested. The coupling density of each peptide in each of the reported experiments was as mentioned in Table 1. The control 0.25 mL portion of the resin was similarly treated in parallel experiment in the absence of peptide and was subsequently used as a control (designated as Background) in ^125I-pd-FVIII binding experiments. ^125I-pd-FVIII Bound/Background ratios were calculated as the amount of ^125I-pd-FVIII, bound to an immobilized peptide, divided by that bound to uncoated control resin, prepared as described above. This ratio represents a Signal/Noise ratio for the micro-beads assay, since ^125I-pd-FVIII bound to peptide represents the signal value and ^125I-pd-FVIII bound to peptide-uncoated resin represents the background (noise) value.
Plasma-derived (pd-) human Factor VIII (FVIII) was purified from concentrate by immunoaffinity chromatography on an anti-FVIII monoclonal antibody column followed by subsequent concentration of pd-FVIII by ion-exchange chromatography using Resource Q HR5/5 column.
The resin with immobilized peptides was washed in the binding buffer (0.01 M Hepes, 0.1 M NaCl, 5 mM CaCl2, 0.01% Tween-80). Subsequently, the resin was diluted in the binding buffer as 1:7 slurry and aliquoted into Eppendorf tubes (40 μL per tube). ^125I-pd-FVIII (100000 cpm in 10 μL) was added to the tubes and the volume of the mixture was adjusted to 100 μL by adding 50 μL of the binding buffer containing 4% BSA to give a 2% final concentration of BSA. After 2 hours of incubation at room temperature on a rotator, the samples were washed 4 times in the binding. After each wash the tubes were centrifuged at 5000 rpm for 1 min in an Eppendorf microcentrifuge, supernatant was discarded, and the resin was re-suspended in the washing buffer, followed by centrifugation under the same conditions. After four washes the tubes with pellet without supernatant were counted for radioactivity. The resin without peptide was processed similarly to account for non-specific pd-FVIII binding to tubes and resin itself, and the radioactivity in this control tube was considered as a background value. Since ^125I-pd-FVIII contains the some fraction damaged during radiolabeling, binding was calculated as a percent of maximal achievable binding, determined in separate experiment with anti-FVIII Mab 8860-coated resin.
All the measurements were performed in duplicates. Each experiment was performed using two independently prepared immobilized peptide samples. The data presented in each table are the mean values of the four determinations: duplicate determination in the two assays performed with beads on which peptides were independently immobilized on the different days. The value of standard deviation of the above quadruplicate determinations (duplicate determinations in two independent experiments) were typically less than 10% of the measured values of ^125I-pd-FVIII binding to peptides.

The target in the next experiment is T2, ReFacto (Homo sapiens, UniProt P00451, DEL763-1656).
T2 construct: purchased Wyeth-Ayerst Pharmacia and Upjohn; host or cells: CHO cells
T2 sequence (P00451 with tags, fused parts or gaps DEL763-1656 limits assumed): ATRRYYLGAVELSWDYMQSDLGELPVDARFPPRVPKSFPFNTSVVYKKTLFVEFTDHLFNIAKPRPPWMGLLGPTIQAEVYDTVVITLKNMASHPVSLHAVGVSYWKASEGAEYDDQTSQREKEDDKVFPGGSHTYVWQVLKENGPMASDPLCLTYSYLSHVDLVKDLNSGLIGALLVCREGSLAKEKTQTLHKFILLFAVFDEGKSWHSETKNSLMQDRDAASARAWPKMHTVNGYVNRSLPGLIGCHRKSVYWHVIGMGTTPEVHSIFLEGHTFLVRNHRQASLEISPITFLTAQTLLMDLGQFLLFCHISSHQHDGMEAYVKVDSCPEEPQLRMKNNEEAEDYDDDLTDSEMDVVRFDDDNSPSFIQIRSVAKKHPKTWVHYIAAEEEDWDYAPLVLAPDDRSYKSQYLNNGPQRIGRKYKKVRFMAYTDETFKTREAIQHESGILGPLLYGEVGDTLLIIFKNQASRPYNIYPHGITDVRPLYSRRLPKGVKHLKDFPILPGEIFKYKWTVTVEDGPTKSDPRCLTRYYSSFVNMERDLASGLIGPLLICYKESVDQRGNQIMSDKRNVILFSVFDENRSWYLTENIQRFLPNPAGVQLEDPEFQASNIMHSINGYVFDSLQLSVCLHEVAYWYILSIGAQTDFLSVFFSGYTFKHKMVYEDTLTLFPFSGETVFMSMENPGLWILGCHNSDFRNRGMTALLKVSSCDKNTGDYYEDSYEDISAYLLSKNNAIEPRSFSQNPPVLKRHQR
T2 sequence (P00451 1668-2351 limits assumed): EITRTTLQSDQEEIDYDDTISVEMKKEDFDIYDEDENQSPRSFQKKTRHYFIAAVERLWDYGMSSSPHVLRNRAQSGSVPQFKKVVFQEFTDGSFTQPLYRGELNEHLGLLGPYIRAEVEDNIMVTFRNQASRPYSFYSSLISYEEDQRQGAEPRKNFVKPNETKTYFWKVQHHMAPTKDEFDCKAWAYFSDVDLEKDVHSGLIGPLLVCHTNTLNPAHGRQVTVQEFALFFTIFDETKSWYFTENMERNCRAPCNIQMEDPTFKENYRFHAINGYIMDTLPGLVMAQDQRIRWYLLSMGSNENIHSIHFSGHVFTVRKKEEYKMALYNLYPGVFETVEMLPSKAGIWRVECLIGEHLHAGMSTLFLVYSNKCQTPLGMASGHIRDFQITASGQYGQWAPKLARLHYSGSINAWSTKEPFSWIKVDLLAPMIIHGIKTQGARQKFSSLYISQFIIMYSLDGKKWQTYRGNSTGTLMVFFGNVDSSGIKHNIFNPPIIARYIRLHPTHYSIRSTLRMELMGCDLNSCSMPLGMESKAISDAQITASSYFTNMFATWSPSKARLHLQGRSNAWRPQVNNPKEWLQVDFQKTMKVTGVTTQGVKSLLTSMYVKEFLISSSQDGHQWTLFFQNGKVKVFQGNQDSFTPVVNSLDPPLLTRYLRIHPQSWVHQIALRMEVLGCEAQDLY
Briefly: Binding of ReFacto to peptide-coated resin. The note with it: peptide immobilized on resin; Table 1.

T1 sequence (P00451 20-1667 limits assumed, one chain of several): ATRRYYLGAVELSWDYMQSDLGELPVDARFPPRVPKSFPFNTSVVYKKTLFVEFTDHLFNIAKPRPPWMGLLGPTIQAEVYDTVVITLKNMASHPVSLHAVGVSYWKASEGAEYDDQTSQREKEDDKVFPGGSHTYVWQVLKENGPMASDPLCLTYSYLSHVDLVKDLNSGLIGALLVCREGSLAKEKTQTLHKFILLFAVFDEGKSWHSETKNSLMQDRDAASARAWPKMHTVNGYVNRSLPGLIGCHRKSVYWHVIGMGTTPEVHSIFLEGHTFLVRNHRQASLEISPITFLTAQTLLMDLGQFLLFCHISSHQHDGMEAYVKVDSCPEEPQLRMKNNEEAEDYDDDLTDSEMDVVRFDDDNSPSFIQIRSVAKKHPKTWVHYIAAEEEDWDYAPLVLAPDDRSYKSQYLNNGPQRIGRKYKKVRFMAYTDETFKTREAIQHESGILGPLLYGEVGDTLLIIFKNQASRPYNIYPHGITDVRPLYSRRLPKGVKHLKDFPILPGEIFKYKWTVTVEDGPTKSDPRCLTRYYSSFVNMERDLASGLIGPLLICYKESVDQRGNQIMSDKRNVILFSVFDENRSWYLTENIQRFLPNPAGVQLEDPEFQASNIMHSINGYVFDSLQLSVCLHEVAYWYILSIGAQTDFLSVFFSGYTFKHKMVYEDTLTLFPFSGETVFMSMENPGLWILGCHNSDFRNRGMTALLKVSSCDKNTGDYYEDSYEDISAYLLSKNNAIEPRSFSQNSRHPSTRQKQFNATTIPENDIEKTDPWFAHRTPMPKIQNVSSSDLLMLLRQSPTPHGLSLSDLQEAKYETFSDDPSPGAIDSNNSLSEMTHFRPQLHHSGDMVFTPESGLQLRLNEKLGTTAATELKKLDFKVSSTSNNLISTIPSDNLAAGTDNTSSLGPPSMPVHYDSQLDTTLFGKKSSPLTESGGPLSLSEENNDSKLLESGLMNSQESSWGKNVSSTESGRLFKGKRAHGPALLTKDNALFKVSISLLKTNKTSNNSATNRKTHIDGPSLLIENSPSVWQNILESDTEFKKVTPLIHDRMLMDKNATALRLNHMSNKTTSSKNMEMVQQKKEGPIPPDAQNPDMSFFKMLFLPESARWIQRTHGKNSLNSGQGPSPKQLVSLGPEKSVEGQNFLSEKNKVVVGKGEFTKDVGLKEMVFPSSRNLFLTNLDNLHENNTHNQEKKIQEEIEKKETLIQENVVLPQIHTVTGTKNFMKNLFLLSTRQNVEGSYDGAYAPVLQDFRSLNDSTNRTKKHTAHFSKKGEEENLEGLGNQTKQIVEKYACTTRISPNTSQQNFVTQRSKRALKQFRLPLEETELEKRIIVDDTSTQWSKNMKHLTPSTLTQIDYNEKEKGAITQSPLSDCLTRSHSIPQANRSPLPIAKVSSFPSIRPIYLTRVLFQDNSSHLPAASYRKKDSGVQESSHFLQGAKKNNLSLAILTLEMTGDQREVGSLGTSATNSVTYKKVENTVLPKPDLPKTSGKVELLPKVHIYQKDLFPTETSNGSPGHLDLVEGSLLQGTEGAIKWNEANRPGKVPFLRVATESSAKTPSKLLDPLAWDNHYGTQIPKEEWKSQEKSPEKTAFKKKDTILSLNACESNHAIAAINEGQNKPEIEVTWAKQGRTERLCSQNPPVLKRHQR

As to YF[Abu]WEYC [S49], in experiment [1], the “% Binding pdFVIII” value amounted to 64.5 ± 4.0%. For the same substance, at ReFacto, the “% Binding ReFacto” value is on record as 54.4 ± 3.8%.
The like results for YHSWE[Bpa]C [S38] were, in that order, 52.3 ± 4.1% and 59.2 ± 4.8%.
With Y-H-T-W-D-Y-C (YHTWDYC) [S52], the “% Binding pdFVIII” value in experiment [1] is reported as 47.5 ± 3.3%. Further, the “% Binding ReFacto” value with ReFacto is on record as 51.2 ± 3.4%.
The like results for Y-H-T-W-E-Y-C (YHTWEYC) [S47] were, in that order, 47.5 ± 2.9% and 38.9 ± 2.8%.
Consider Abu-W-E-Y-C [S50], for which the “% Binding pdFVIII” value in experiment [1] is 35.3 ± 2.4%. The “% Binding ReFacto” value on ReFacto came to 36.4 ± 2.4%.
On to YH[Abu]WEYC [S54], for which, in experiment [1], the “% Binding pdFVIII” value turned out to be 32.3 ± 2.6%. In addition, the “% Binding ReFacto” value at ReFacto was 44.4 ± 2.8%.
Consider Ac-E-S-W-E-Y-C (Ac-ESWEYC) [S45], for which, in experiment [1], the “% Binding pdFVIII” value was found to be 36.4 ± 2.6%. In the experiment with ReFacto, the “% Binding ReFacto” value is 38.4 ± 2.6%.
Regarding T-W-E-Y-C [S46], in experiment [1], the “% Binding pdFVIII” value is 37.0 ± 2.1%. Further, the “% Binding ReFacto” value at ReFacto is on record as 25.1 ± 1.9%.
Take C-S-W-E-Y [S20]: the “% Binding pdFVIII” value in experiment [1] was found to be 48.6 ± 3.3%. For the same substance, on ReFacto, the “% Binding ReFacto” value came out at 45.3 ± 3.1%.
For YHS[2Nal]EYC [S42], the “% Binding pdFVIII” value in experiment [1] was determined as 60.3 ± 2.2%. Also, the “% Binding ReFacto” value at ReFacto is 47.8 ± 2.1%.
Turning to YF[Abu]WEYC [S36], the “% Binding pdFVIII” value in experiment [1] is given as 62.0 ± 4.2%. Moreover, the “% Binding ReFacto” value at ReFacto came out at 53.8 ± 5.0%.
S-W-D-Y-C [S43]: the “% Binding pdFVIII” value in experiment [1] came to 48.2 ± 2.8%. The “% Binding ReFacto” value at ReFacto is given as 35.6 ± 2.6%.
For the substance Y-H-S-W-D-Y-C (YHSWDYC) [S48], the “% Binding pdFVIII” value in experiment [1] worked out at 52.0 ± 3.1%. For the same substance, the “% Binding ReFacto” value with ReFacto was 40.2 ± 2.9%.
In the case of YHSWE[2Nal]C [S56], the “% Binding pdFVIII” value in experiment [1] was determined as 51.5 ± 3.4%. Besides, the “% Binding ReFacto” value at ReFacto was 51.5 ± 3.4%.
Consider YHS[Bpa]E[Bpa]C [S51], for which, in experiment [1], the “% Binding pdFVIII” value is reported as 63.4 ± 3.8%. For the same substance, the “% Binding ReFacto” value on ReFacto came out at 49.3 ± 3.5%.
Regarding E-S-W-E-Y-C (ESWEYC) [S44], in experiment [1], the “% Binding pdFVIII” value came out at 38.0 ± 2.4%. The “% Binding ReFacto” value with ReFacto was 35.1 ± 2.4%.
Take S-W-E-Phg-C [S53]: the “% Binding pdFVIII” value in experiment [1] amounted to 38.1 ± 2.7%. The “% Binding ReFacto” value at ReFacto is recorded as 42.5 ± 2.8%.
The like results for Y-H-S-W-E-Bip(4,4′)-C [S55] were, in that order, 51.5 ± 2.9% and 36.2 ± 2.1%.
